“Also recorded” adds a separate entry of the source.
Key:
[1] = test system: C26-6CK tumor-infiltrating dendritic cells; assay: Activation of C26-6CK tumor-infiltrating DC with LPS, IFNγ and anti-CD40, compared with bone marrow-derived DC (Example I); format: cell-based, mouse
Bone marrow-derived DC = assay: Activation of bone marrow-derived DC cultured with C26 tumor supernatant (Example IX); format: cell-based, mouse; conditions: 10% v/v supernatant, indomethacin 1 μg/ml during supernatant preparation, anti-IL10R 10 μg/ml
Procedure: Bone marrow-derived DCs were obtained by culture of bone marrow progenitors with GM-CSF and TNFα for 5 days in the presence or absence of 10% v/v of a supernatant from C26 tumors. To prepare tumor supernatant, 0.5 cm C26 tumors grown subcutaneously in BALB/c mice were excised and minced, then cultured for 48 hours in 10 ml DMEM. The resulting supernatant was filtered at 0.2 μm and frozen before use. This supernatant contained 0.25 ng/ml IL-10 and 50 ng/ml PGE2, as determined by specific ELISA (R&D Systems). In order to inhibit PGE2 synthesis in the supernanant, the inhibitor of cyclo-oxygenase indomethacin (Sigma) was added at 1 μg/ml during the 48 h culture.
After 5 days, bone-marrow DC were activated with different combinations of optimal doses of LPS, IFNγ and anti-CD40 antibody in the presence or absence of 10 μg/ml anti-IL10R antibody. The activation of DC was measured by their expression of the co-stimulatory molecules CD40 and CD86 by FACS as well as by the production of IL-12 as detected by intra-cellular staining.

C26-6CK tumor [2] = assay: Therapeutic effect of CpG 1668+indomethacin in the C26-6CK tumor model (Example X); format: in vivo, BALB/c mice; conditions: C26-6CK s.c.; 5 μg CpG 1668 intra-tumorally Day 7, 14, 21; indomethacin 5 μg/ml in drinking water day 5 to 28
[3] = test system: C26-6CK tumor-infiltrating dendritic cells; assay: IL-12 p70 and TNFα ELISA in supernatants of activated C26-6CK TIDC (Example II); format: cell-based, mouse
[4] = test system: C26-6CK tumor-infiltrating dendritic cells; assay: Mixed leukocyte reaction with activated C26-6CK TIDC (Example III); format: cell-based, mouse; conditions: overnight activation, 5 days with allogeneic T cells
C26 tumor = assay: Therapeutic effect in the C26 tumor model (Example VI); format: in vivo, BALB/c mice
Source text: Control antibody was purified GL113 antibody.

C26-6CK tumor [5] = assay: Therapeutic effect in the C26-6CK tumor model (Example V)
Procedure: • 1×10^5 C26-6CK tumor cells were implanted s.c. at Day 0 in groups of seven 8 week-old female BALB/c mice and treated as follow: • 10 μg of CpG 1668 were injected peri- (when tumor too small) or intratumorally at Day 7, 14, and 21. • 250 μg anti-IL10R purified antibody were injected intraperitoneally twice a week starting at Day 7 (stop Day 24).
(§1) Tumor development was assessed three times a week by palpation and tumors measured using a caliper with tumor volume=I^2×L×0.4, I being the small diameter and L the large diameter. Mice were sacrificed when tumors exceeded 1500 mm^3 or for humane criteria.

B16F0 melanoma tumor = assay: Therapeutic effect in the B16F0 melanoma tumor model (Example VII)
Procedure: • 5×10^4 B16F0 tumor cells were implanted s.c. at Day 0 in groups of seven 8 week-old female C57BL/6 mice and treated as follow: • 5 μg of CpG 1668 were injected intra-tumorally at Day 7, 14, and 21. • 250 μg anti-IL10R purified antibody were injected intraperitoneally at Day 7, 14, and 21. Control antibody was purified GL113 antibody.
as §1

Molecule: IFNγ: cytokine IFNγ (R&D Systems)
- response of tumor-infiltrating DC to stimulation (co-stimulatory molecules, MLR, IL-12 and TNFα) [1]: did not respond

Molecule: COc1ccc2c(c1)c(CC(=O)O)c(C)n2C(=O)c1ccc(Cl)cc1 [indomethacin]
- relief of the inhibition of DC activation by C26 tumor supernatant (CD40, CD86, IL-12 expression) (Bone marrow-derived DC): relieved partially
- mice that did not develop tumor (C26-6CK tumor [2]): 1/7

Molecule: CpG 1668: TLR-9 ligand in the mouse, sequence TCC-ATG-ACG-TTC-CTG-ATG-CT (SEQ ID NO: 5), MWG Biotech (TCCATGACGTTCCTGATGCT; DNA, all phosphorothioate, methylation of C not given here)
- IL-12 p70 production in culture supernatants (ELISA) ([3]; C26-6CK TIDC, GM-CSF 10 ng/ml, 24 h, CpG 1668 5 μg/ml, anti-IL10R 10 μg/ml): does not induce
- activating tumor-infiltrating dendritic cells ([3]; Examples II and III): marginal effect
- MLR stimulatory capacity of tumor-infiltrating DC (thymidine incorporation) [4]: minimally enhanced
- overall anti-tumor effect (C26 tumor): marginal effect
- mice that did not develop tumor (C26-6CK tumor [2]): 1/7
- mice that did not develop a tumor (C26-6CK tumor [5]; C26-6CK s.c., 10 μg CpG 1668 peri- or intratumorally Day 7, 14, 21): 1/7
- mean volume of tumors versus control group (C26-6CK tumor [5]; C26-6CK s.c., after three weeks): smaller than in the control group
- overall anti-tumor effect (C26-6CK tumor [5]; C26-6CK tumor model): minor effect; also recorded: marginal effect
- overall anti-tumor effect (B16F0 melanoma tumor): marginal effect

Reference: patent US20090087440A1, “Methods for Treating Cancer” (SCHERING CORPORATION, priority 2001, published 2009)
